From patent publication US20260294964A1, “PHARMACEUTICALS CONTAINING CHELATORS WITH STRONG ZN IONS-HOLDING FEATURE FOR THE TREATMENT OF SYMPTOMS AND DISEASES CAUSED BY MICROORGANISMS/DISEASES CAUSED BY TOXINS OR NEUROTOXINS/CANCER/SEVERAL SYNDROMES” (priority 2023, published 2026)
“Also recorded” adds a separate entry of the source. Like-named read-outs stand apart in the source and are kept apart here.

Key:
[1] = tested on: microorganisms that decompose organic matter (bacteria/fungi); test: Culture of microorganisms that decompose organic matter; format: cell-based; conditions: for concentration in culture medium at which microorganisms multiply strongly: microorganisms that decompose organic matter (bacteria/fungi)
[2] = tested on: pathogenic microorganisms; test: Inhibition/killing of pathogenic microorganisms in water with Boraras Micros fish infected from dead fish; format: in vivo
[3] = Metallic Cu suspension test with 1% Na ascorbate (Cu ion complex formation); format: physicochemical; conditions: with 0.1% CuCl2; excess 1% Na ascorbate
From the text: In an environment containing water in the body of organisms/host bodies (host is animal/human) such as in blood/tissue fluid/alveolar fluid/intracellular fluid . . . ) in conditions where the body is depleted of chelators with [Zn ions/other transition metal ions]-holding (such as the amount of chelators with [Zn ions/other transition metal ions]-holding remains is not significant in the patient's body), Cu ions will attach to [Fe ions in metalloproteins of [host cells/red blood cells/alveolar cells], causing these cells to lose the ability to exchange O2, causing symptoms of acute respiratory failure (not due to lung infection), and this symptom is very dangerous because it can quickly lead to death. Among the bond forces between Cu ions and other metal ions, the bond force of the Cu ion-Fe ion complex is the strongest, can recognize the existence of Cu ion-ion Fe ion complex/Cu ion-Zn ion complex/Cu ion-Mg ion complex/Cu ion-Ca ion complex, and can recognize Cu ion-other metal ion bonds, in which the Cu ion-Fe ion bond is the bond type with the highest magnitude through experiments conducted in water environment (water environment without chelators with [Zn ions/other transition metal ions]-holding) is the environment that simulates the blood environment/alveolar fluid environment of a host with the depletion of these chelators), these experiments were performed by adding an excess amount of 1% Na ascorbate solution to the test tube containing the solution with [0.1 % CuCl2+greater than 0.2% FeCl3]/the test tube containing the solution containing [0.1 % CuCl2+greater than 0.6% ZnCl2]/the test tube containing the solution containing [0.1 % CuCl2+greater than 0.63% MgCl2]/the test tube containing the solution conatining [0 .

[4] = tested on: Boraras Micros fish; conditions: for toxicity / safety to host cells: in words, from fish experiments; for time to death of fish: 300 ppm EDTA disodium, 800 ppm EDTA Na; for death of fish: 1000 ppm Na2 EDTA / 0.5 ppm CuCl2 / [0.3 ppm CuCl2+20 ppm ZnCl2]
[5] = Metallic Cu suspension test with 1% Na ascorbate (Cu ion complex formation); format: physicochemical; conditions: 0.1% CuCl2, alone or with several percent of chelator; excess 1% Na ascorbate
[6] = format: physicochemical, animal/human blood; conditions: for volume that completely dissolves Zn-blood complex suspension: suspension from 1.4 ml 0.1% ZnCl2 in 100 ml 0.9% NaCl with 1% blood; for amount needed to completely dissolve Zn-blood complex suspension, compared with lysine phosphate/lysine chloride/arginine phosphate/arginine chloride: suspension with 2 ppm ZnCl2
[7] = tested on: Boraras Micros fish; test: Protection of Boraras Micros fish from CuCl2 by chelators; format: in vivo; conditions: 0.4 ppm CuCl2 + a few ppm to more than 10 ppm of chelator
[8] = tested on: avian influenza; parameters: species or system chicken; conditions: in vivo
[9] = tested on: sweet taste on the tongue; test: Loss and recovery of sweet taste after Zn gluconate; format: in vivo, human; conditions: for recovery of sweet taste: 5% arginine glutamate / 0.5% triethylenetetramine glutamate, 10 seconds
[10] = tested on: symptoms such as sore throat/cough/headache; test: Symptoms generated by ZnCl2 in the throat and their relief; format: in vivo, human; conditions: for disappearance of ZnCl2-induced symptoms: few ml of 10% solution, oral
[11] = Voltage of metallic Zn-metallic Cu electrode pair in test tube; format: physicochemical; conditions: 0.9% NaCl+0.2 ppm CuCl2+0.4 ppm ZnCl2+0.6 FeCl3
[12] = tested on: mice; format: in vivo, mouse; conditions: fed rat poison pills, normal water (control)
[13] = 10 ppm Ampicillin / 20 ppm Bactrim / 100 ppm triethylenetetramine diethylenetriaminepentaacetate / 300 Mg EDTA / 600 ppm Ca EDTA / combinations as in label
[14] = 20 ppm Ampicillin / 40 ppm Bactrim

In the case of `CC1(C)S[C@@H]2[C@H](NC(=O)[C@H](N)c3ccccc3)C(=O)N2[C@H]1C(=O)O` [Ampicillin, reference compound], the “inhibition of proliferation of microorganisms” value ([1]; 20 ppm Bactrim / 10 ppm Ampicillin, first 36 hours) is reported as “slightly inhibited”, the “appearance of water after 6 days” value [2, 13] is reported as “cloudy” and the “fish outcome after 6 days” value [2, 13] is reported as “died and all of fishes died”. For the same compound, the “appearance of water after 6 days” value [2, 14] was “cloudy” and the “fish outcome after 6 days” value [2, 14] was “died and all of fishes died”.

With `[Ca+2].[Cl-].[Cl-]` [CaCl2] the “concentration of second metal salt at which metallic Cu suspension will not appear” value [3] was “greater than 0.65%”.

With `[Cl][Cu][Cl]` [CuCl2] the “death of fish in CuCl2” value ([4]; 0.4 ppm CuCl2) was “dying after a few hours” and the “appearance of metallic Cu suspension” value [5] was “metallic Cu suspension will appear”.

For `O=C([O-])CN(CCN(CC(=O)O)CC(=O)O)CC(=O)[O-].[K+].[K+]` [EDTA dipotassium], the “toxicity / safety to host cells” value [4] was “toxic to host cells”.

For `O=C([O-])CN(CCN(CC(=O)[O-])CC(=O)O)CC(=O)O.[Na+].[Na+]` [EDTA disodium], the “time to death of fish” value [4] was “less than 24 hours”, the death of fish [4] was “died within a few hours” and the death of fish ([4]; listed as 2 Na EDTA) was “died in a few hours”. The “toxicity / safety to host cells” value [4] was “quite toxic to host cells” and the “toxicity / safety to host cells” value ([4]; listed as disodium EDTA) was “highly toxic to healthy cells”.

With `[Cl][Fe]([Cl])[Cl]` [FeCl3] the “concentration of second metal salt at which metallic Cu suspension will not appear” value [3] was “greater than 0.2%” and the “volume that completely dissolves Zn-blood complex suspension” value ([6]; 0.1% solution) was 6 mL.

In the case of `O=C(O)CN(CCN(CC(=O)O)CC(=O)O)CC(=O)O.[Mg]` [Mg EDTA, Ethylenediaminetetraacetic acid magnesium], the “survival of fish in CuCl2 with chelator” value [7] is reported as “will not die after several weeks”, the “time after which fish did not die” value ([4]; 800 ppm EDTA Cu / 3000 ppm EDTA Mg / 12000 ppm EDTA Ca) is reported as no less than 10 days and the survival of fish ([4]; 2000 ppm triethylenetetramine diethylnenepentaacetate / 3000 ppm Mg EDTA / 2000 ppm Cu EDTA / 12000 ppm Ca EDTA, mixtures at concentrations in label) is reported as “lived for many days”. For the same compound, the “appearance of water after 6 days” value [2, 13] was “clear; also recorded: transparent”, the “fish outcome after 6 days” value [2, 13] was “lived; also recorded: did not die” and the “appearance of metallic Cu suspension” value [5] was “metallic Cu suspension will not appear”. The “volume that completely dissolves Zn-blood complex suspension” value ([6]; 0.1% solution) was 2 mL, the “amount needed to completely dissolve Zn-blood complex suspension, compared with lysine phosphate/lysine chloride/arginine phosphate/arginine chloride” value [6] was “tens to hundreds of times lower” and the “state of chickens after 12 hours” value [8] was “stopped the lethargic state and they returned to eating normally”.

In the case of `[Cl-].[Cl-].[Mg+2]` [MgCl2], the “concentration of second metal salt at which metallic Cu suspension will not appear” value [3] is reported as “greater than 0.63%”.

With `O=C([O-])c1cc(O)c(O)c(O)c1.[Na+]` [Na gallate] the “concentration in culture medium at which microorganisms multiply strongly” value (shortened to “concentration in culture medium”) [1] was 5 ppm.

For `CN(C)C1CSSC1` [Nereistoxin], the “time to death of fish, toxin alone” value ([4]; in vivo) was 30 min.

With `O=C([O-])[C@H](O)[C@@H](O)[C@H](O)[C@H](O)CO.O=C([O-])[C@H](O)[C@@H](O)[C@H](O)[C@H](O)CO.[Zn+2]` [Zn gluconate] the “sweet taste sensation after Zn” value ([9]; chewing and sucking 15 mg tablet, 120 seconds) was “completely lost”.

With `[Cl-].[Cl-].[Zn+2]` [ZnCl2] the “concentration in culture medium” value [1] was 12 ppm, the “appearance of symptoms (itchy throat/sore throat/cough/runny nose/body aches/slight fever/headache)” value ([10]; 2 ml of 0.4% ZnCl2 solution, 120 seconds) was “appear after a few minutes to a few hours” and the “ZnCl2 concentration above which Zn-blood suspension begins to appear” value ([6]; 0.01% blood) was “above 1.5 ppm”. For the same compound, the “ZnCl2 concentration at which suspension appears abundantly” value ([6]; 0.01% blood) was 2 ppm and the “volume of 0.1% ZnCl2 solution at which Zn-blood complex suspension begins to appear” value ([6]; 100 ml of 0.9% NaCl with 1% blood) was 1.4 mL.

In the case of `N=C(N)NCCC[C@H](N)C(=O)O.O=P(O)(O)O` [arginine phosphate], the “amount used to sharply reduce the voltage, compared with EDTA Mg/triethylenetetramine glutamate/triethylenetetramine diethylenetriaminepentaacetate” value [11] is reported as “dozens of times greater”, the “survival of fish in CuCl2 with chelator” value [7] is reported as “will not die after several weeks” and the “volume that completely dissolves Zn-blood complex suspension” value ([6]; 10% solution) is reported as 2 mL. For the same compound, the “units of [Zn ions/other transition metal ions] held by one unit of chelator” value ([6]; synthetic: upper end printed 'more than 200 units') was “one unit (or few units)”.

With `N=C(N)NCCC[C@H](N)C(=O)O` [arginine, reference compound] the “appearance of metallic Cu suspension” value [5] was “metallic Cu suspension will not appear”.

With `O=C([O-])CC(O)(CC(=O)[O-])C(=O)[O-].[Na+].[Na+].[Na+]` [citrate Na, Na citrate] the “concentration in culture medium” value [1] was 80 ppm.

In the case of `O=c1oc2ccccc2c(O)c1C1CC(c2ccc(OCc3ccc(C(F)(F)F)cc3)cc2)Cc2ccccc21` (stereo not shown) [flocoumafen, reference compound], the “time to death of fish, toxin alone” value ([4]; 1.25 ppm flocoumafen / 0.3 ppm Bromadiolone / 0.2 ppm Methylamine Avermectin) is reported as 2160 min and the “time to death of all mice” value [12] is reported as “about 2 days”.

With `NCCCC[C@H](N)C(=O)O.O=P(O)(O)O` [lysine phosphate, reference compound] the “survival of fish in CuCl2 with chelator” value [7] was “will not die after several weeks”.

For `NCCCC[C@H](N)C(=O)O` [lysine, reference compound], the “appearance of metallic Cu suspension” value [5] was “metallic Cu suspension will not appear”.

With `O=C([O-])CC(O)C(=O)[O-].[Na+].[Na+]` (stereo not shown) [malate Na, Na malate] the “concentration in culture medium” value [1] was 80 ppm.

For `O=C([O-])CCC(=O)[O-].[Na+].[Na+]` [succinate Na, Na succinate], the “concentration in culture medium” value [1] was 80 ppm.

For `NCCNCCNCCN` [triethylenetetramine, Triethylenetetramine, reference compound], the “appearance of metallic Cu suspension” value [5] was “metallic Cu suspension will not appear”.

For “Diethylenetriaminepentaacetic acid calcium [Ca DTPA]”, the “survival of fish in CuCl2 with chelator” value [7] was “will not die after several weeks” and the “toxicity / safety to host cells” value [4] was “highly safe”.

With “Diethylenetriaminepentaacetic acid magnesium [Mg DTPA]” the “survival of fish in CuCl2 with chelator” value [7] was “will not die after several weeks” and the “appearance of metallic Cu suspension” value [5] was “metallic Cu suspension will not appear”.

With EDTA Na the “time to death of fish” value [4] was no more than 24 h.

In the case of Na tannate Na, the “concentration in culture medium” value [1] is reported as 30 ppm.

With arginine ascorbate the “volume that completely dissolves Zn-blood complex suspension” value ([6]; concentration of solution not given) was 0.7 mL.

In the case of arginine glutamate, the “amount used to sharply reduce the voltage, compared with EDTA Mg/triethylenetetramine glutamate/triethylenetetramine diethylenetriaminepentaacetate” value [11] is reported as “dozens of times greater”, the “recovery of sweet taste” value [9] is reported as “fully recovered” and the “volume that completely dissolves Zn-blood complex suspension” value ([6]; 10% solution) is reported as 1.0 mL.

With “pentaethylenehexamine diethylenetriaminepentaacetate” the “amount needed to completely dissolve Zn-blood complex suspension, compared with lysine phosphate/lysine chloride/arginine phosphate/arginine chloride” value [6] was “tens to hundreds of times lower”.

For “tetraethylenepentamine diethylenetriaminepentaacetate”, the “amount needed to completely dissolve Zn-blood complex suspension, compared with lysine phosphate/lysine chloride/arginine phosphate/arginine chloride” value [6] was “tens to hundreds of times lower”.

For triethylenetetramine ascorbate, the “disappearance of ZnCl2-induced symptoms” value [10] was “gradually disappear after a few hours”.

For triethylenetetramine gluconate, the “amount needed to completely dissolve Zn-blood complex suspension, compared with lysine phosphate/lysine chloride/arginine phosphate/arginine chloride” value [6] was “tens to hundreds of times lower”.

In the case of triethylenetetramine glutamate, the “recovery of sweet taste” value [9] is reported as “fully recovered”, the “disappearance of ZnCl2-induced symptoms” value [10] is reported as “gradually disappear after a few hours” and the “appearance of metallic Cu suspension” value [5] is reported as “metallic Cu suspension will not appear”.
